According to patent US20070238141A1, “Method for measuring kinase activity” (SYSMEX CORPORATION, priority 2006, published 2007):

Experiments:
Format in all cases: biochemical, human
[1] = test system: receptor tyrosine kinase present in a cell membrane of MDA-MB231; assay: Influence of inhibitor on kinase activity of receptor tyrosine kinase, GST-poly (Glu,Tyr) substrate, Western blotting, sample i; settings: reaction solution containing 100 μM inhibitor, C (no inhibitor) = 100%, FIG. 8
Experimental: (§1) A culturing cell (MDA-MB231) derived from a breast cancer was cultured to 80% confluent (about 10^7 cells) in a 225 cm^2 flask. This cultured cell and 1 ml of a cell treating solution (containing 20 mM HEPES pH7.4, 0.2% PI, 10% glycerol, 200 μM Na3VO4, and 50 mM NaF) were mixed, and a cell membrane was destructed by pressurizing using a pestle to prepare a cell solution. The resulting cell solution was centrifuged, and the supernatant was discarded. A precipitate and a cell membrane solubilizing solution (containing 20 mM HEPES pH7.4, 1% NP40, 0.2% PI, 10% glycerol, 200 μM Na3VO4, and 50 mM NaF) were mixed, a cell membrane was solubilized by pressurizing using a pestle, and this was centrifuged to recover the supernatant. This supernatant was used as a sample for a reaction in the following enzyme reaction. Similarly, a sample for a reaction solution was prepared from MDA-MB468 and SKBr3 which are a cultured cell derived from a breast cancer, respectively. Herein, a sample prepared from MDA-MB231 is designated as a sample for reaction “i”, a sample prepared from MDA-MB468 is designated as a sample for reaction “ii”, and a sample prepared from SKBr3 is designated as a sample for reaction “iii”. All samples for a reaction were prepared so that a concentration of a contained protein became 0.8 mg/ml.
(§2) Each 25μ of samples for a reaction were accommodated in four tubes. […]
(§3) Using these “PD”, “W”, “AG” and “C”, Western blotting was performed according to the same method as that of Example 6. Results are shown by a graph in which a fluorescent intensity of a band of a phosphorylated GST-poly (Glu,Tyr) fused protein detected in a fluorescent photograph of Western blotting was digitalized using an exclusive use analyzing software. […]

[2] = test system: receptor tyrosine kinase present in a cell membrane of MDA-MB468; assay: Influence of inhibitor on kinase activity of receptor tyrosine kinase, GST-poly (Glu,Tyr) substrate, Western blotting, sample ii; settings: reaction solution containing 100 μM inhibitor, C (no inhibitor) = 100%, FIG. 9
Experimental: as §1, §2, §3

[3] = test system: receptor tyrosine kinase present in a cell membrane of SKBr3; assay: Influence of inhibitor on kinase activity of receptor tyrosine kinase, GST-poly (Glu,Tyr) substrate, Western blotting, sample iii; settings: reaction solution containing 100 μM inhibitor, C (no inhibitor) = 100%, FIG. 10
Experimental: as §1, §2, §3

[4] = test system: receptor tyrosine kinase present in a cell membrane of SKBr3; assay: Influence of ligand on kinase activity of receptor tyrosine kinase, GST-poly (Glu,Tyr) substrate, Western blotting; settings: reaction solution containing 100 ng of Heregulin (H) vs no ligand (C); SKBr3 membrane sample; FIG. 11
Experimental: A culturing cell (MDA-MB231) derived from a breast cancer was cultured to 80% confluent (about 10^7 cells) in a 225 cm^2 flask. This cultured cell and 1 ml of a cell treating solution (containing 20 mM HEPES pH7.4, 0.2% PI, 10% glycerol, 200 μM Na3VO4, and 50 mM NaF) were mixed, and a cell membrane was destructed by pressurizing using a pestle to prepare a cell solution. The resulting cell solution was centrifuged, and the supernatant was discarded. A precipitate and a cell membrane solubilizing solution (containing 20 mM HEPES pH7.4, 1% NP40, 0.2% PI, 10% glycerol, 200 μM Na3VO4, and 50 mM NaF) were mixed, a cell membrane was solubilized by pressurizing using a pestle, and this was centrifuged to recover the supernatant. This supernatant was used as a sample for a reaction in the following enzyme reaction. Similarly, a sample for a reaction solution was prepared from MDA-MB468 and SKBr3 which are a cultured cell derived from a breast cancer, respectively. […]
Using these “H” and “C”, Western blotting was performed according to the same method as that of Example 6. And, a fluorescent intensity of a band of a phosphorylated GST-poly (Glu,Tyr) fused protein detected in a fluorescent photograph was digitalized using an exclusive use analyzing software. […]

COc1cc2ncnc(Nc3cccc(Cl)c3)c2cc1OC [AG1478]
fluorescent intensity of band of phosphorylated GST-poly (Glu,Tyr) fused protein compared with C [1]: not inhibited | fluorescent intensity of band of phosphorylated GST-poly (Glu,Tyr) fused protein compared with C [2]: reduced | fluorescent intensity of band of phosphorylated GST-poly (Glu,Tyr) fused protein compared with C [3]: reduced

CNc1cc2c(Nc3cccc(Br)c3)ncnc2cn1 [PD158780]
fluorescent intensity of band of phosphorylated GST-poly (Glu,Tyr) fused protein compared with C [1]: not inhibited | fluorescent intensity of band of phosphorylated GST-poly (Glu,Tyr) fused protein compared with C [2]: reduced | fluorescent intensity of band of phosphorylated GST-poly (Glu,Tyr) fused protein compared with C [3]: reduced

COc1cc2ncnc(Nc3ccc(OCc4ccccc4)cc3)c2cc1OC [W4557]
fluorescent intensity of band of phosphorylated GST-poly (Glu,Tyr) fused protein compared with C [1]: not inhibited | fluorescent intensity of band of phosphorylated GST-poly (Glu,Tyr) fused protein compared with C [2]: reduced | fluorescent intensity of band of phosphorylated GST-poly (Glu,Tyr) fused protein compared with C [3]: reduced

Heregulin
fluorescent intensity of band of phosphorylated GST-poly (Glu,Tyr) fused protein compared with C [4]: higher
